Assay results as given in US20080070971A1, “Medical Use of Bilirubin and its Structural Analogues” (priority 2006, published 2008).

What was measured:
[1] = target: T1, isocitrate dehydrogenase (ICDH) (Sus scrofa, UniProt P33198); experiment: Isocitrate dehydrogenase inhibition; type: biochemical; conditions: concentration equivalent to the moderate level of serum bilirubin (FIG. 7)
T1 construct: purchased SigmaAldrich I2516
T1 sequence (P33198 9-421): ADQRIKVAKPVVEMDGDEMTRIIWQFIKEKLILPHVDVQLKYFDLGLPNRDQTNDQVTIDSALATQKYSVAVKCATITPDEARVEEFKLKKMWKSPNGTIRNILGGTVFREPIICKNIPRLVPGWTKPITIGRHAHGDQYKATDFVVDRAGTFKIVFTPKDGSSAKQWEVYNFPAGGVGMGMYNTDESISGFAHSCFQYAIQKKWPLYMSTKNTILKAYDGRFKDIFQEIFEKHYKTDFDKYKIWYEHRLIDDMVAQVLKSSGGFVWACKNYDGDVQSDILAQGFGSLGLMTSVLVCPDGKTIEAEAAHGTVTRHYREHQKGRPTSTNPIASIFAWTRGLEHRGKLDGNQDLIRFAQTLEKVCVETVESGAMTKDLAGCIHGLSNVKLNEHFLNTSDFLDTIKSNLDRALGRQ
Procedure: NAD (Cat.#N1511), NADH (Cat. N9410), NADP (Cat.#N8610) and NADPG (Cat. #N7505), HMG-CoA (Cat.#H6132) were purchased from Sigma Aldrich (St. Louis, Mo.). NADP-linked isocitrate dehydrogenase was also obtained from SigmaAldrich (Cat.#I2516). Other liver enzymes were prepared as follows.

HMG-CoA reductase = target: T2, HMG-CoA reductase (Homo sapiens, UniProt P04035); experiment: HMG-CoA reductase assay in liver microsomes; type: biochemical; conditions: 10 mg/L (FIG. 5)
T2 construct: from tissue; host or cells: liver microsomes
T2 sequence (P04035 1-888): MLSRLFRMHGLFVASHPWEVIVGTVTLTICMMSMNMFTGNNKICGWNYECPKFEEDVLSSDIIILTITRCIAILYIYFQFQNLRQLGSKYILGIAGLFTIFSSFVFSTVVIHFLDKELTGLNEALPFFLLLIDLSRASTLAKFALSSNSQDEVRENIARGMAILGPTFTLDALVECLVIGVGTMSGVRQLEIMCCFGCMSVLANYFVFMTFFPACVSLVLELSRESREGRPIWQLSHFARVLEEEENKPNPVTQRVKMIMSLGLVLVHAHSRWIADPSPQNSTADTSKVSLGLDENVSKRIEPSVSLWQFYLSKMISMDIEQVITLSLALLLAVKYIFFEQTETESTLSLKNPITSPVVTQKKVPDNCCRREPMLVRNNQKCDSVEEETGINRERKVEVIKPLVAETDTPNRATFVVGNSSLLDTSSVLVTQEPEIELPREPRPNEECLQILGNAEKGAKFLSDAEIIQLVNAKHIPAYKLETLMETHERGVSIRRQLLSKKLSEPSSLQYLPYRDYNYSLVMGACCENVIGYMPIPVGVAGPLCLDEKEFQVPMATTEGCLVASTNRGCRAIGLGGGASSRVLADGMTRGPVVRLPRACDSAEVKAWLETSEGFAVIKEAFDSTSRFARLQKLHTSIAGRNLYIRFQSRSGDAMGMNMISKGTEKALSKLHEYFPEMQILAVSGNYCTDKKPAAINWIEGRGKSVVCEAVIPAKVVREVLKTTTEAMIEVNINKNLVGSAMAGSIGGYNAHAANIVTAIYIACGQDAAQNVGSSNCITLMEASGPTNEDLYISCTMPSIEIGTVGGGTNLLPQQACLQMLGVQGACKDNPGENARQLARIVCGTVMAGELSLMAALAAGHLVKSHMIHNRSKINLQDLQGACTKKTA
Procedure: Liver microsomes, which are used to investigate cholesterol metabolism, were prepared as follows. Liver was homogenized in 50 mM Tris HCl buffer (pH 7.4), containing 0.3 M sucrose, 10 mM DTT, and 10 mM EDTA. The homogenate was centrifuged at 20,000×g for 15 min, and the supernatant was centrifuged at 100,000×g for 60 min. The resulting microsomal fraction was suspended in 3 ml of 0.1 M potassium phosphate buffer (pH 7.4), containing 1 mM EDTA and 5 mM DTT. Aliquots were immediately frozen in liquid nitrogen and stored at −20° C. until analysis.
Assay of HMG-CoA reductase. Microsomal suspensions of […], containing 5 mg protein, were preincubated for 5 min at 37° C. with […] of 0.1 M potassium phosphate buffer (pH 7.4), containing 1 mM EDTA and 12 mM glucose-6-phosphate. The assay was initiated by adding […] of cofactor-substrate solution (0.1 mM HMG-CoA, 3 mM MADPH, and 2 U/ml glucose-6-phosphate dehydrogenase). The incubation was performed at 37+ C. for 30 min and was terminated by the addition of […] of 1 M MaOH. After lactonization, the mevalonolactone was separated by thin layer chromatography. The eluate, which contained mevalonolactone, was collected in a scintillation vial. The radioactivity was then counted in a Packard 3320 scintillation spectrometer.

Human carcinoma cells = experiment: Cancer cell growth by cell counting; type: cell-based; conditions: concentrations above 10 mg/L (FIG. 10)
Procedure: Cell growth. Human carcinoma cells were cultured continuously in a medium containing ferrous sulfate, kept in a humidified incubator at 37° C. Cancer cells were seeded in triplicate at a density of 10,000 cells/3.5-cm culture dish overnight before being subjected to treatments. Growth was estimated by counting cells in a hemocytometer after staining cells with trypan blue. Cell yields from cultures maintained in seeding medium served as growth controls for computing the relative cell growth.

[2] = system: liver cholesterol esterase; experiment: Cholesterol esterification by liver cholesterol esterase; type: biochemical
[3] = Minimal erythema dose (MED) on skin exposed to solar radiation; type: in vivo, human
From the text: Healthy volunteers were exposed to solar radiation for evaluation of minimal erythema dose (MED)—a direct sign of acute inflammation, without and with pretreatment of bilirubin (dissolved in dimethyl sulfoxide).

[4] = Oral bilirubin supplementation, blood chemistry; type: in vivo
Procedure: 2-6 bilirubin pills (10 mg/capsule)were ingested daily as a dietary supplement over time period from 3-12 months. Blood samples were taken by medical professionals and blood chemistry, including serum bilirubin level, total cholesterol, triglyceride, LDL-cholesterol, and HDL cholesterol were analyzed by independent medical testing laboratories.

[5] = 2-6 pills (10 mg/capsule) daily, 3-12 months
[6] = at higher serum bilirubin level (FIG. 12)

## C=CC1=C(C)C(=Cc2[nH]c(Cc3[nH]c(C=C4NC(=O)C(C)=C4C=C)c(C)c3CCC(=O)O)c(CCC(=O)O)c2C)NC1=O [bilirubin, 2,7,13,17-tetramethyl-1,19-dioxo-3,18-divinyl-1,10,19,22,23,24-hexahydro-21H-biline-8,12-dipropanoic acid]
[1]
  inhibition of isocitrate dehydrogenase: strongly suppressed
HMG-CoA reductase
  reduction of HMG-CoA reductase activity: ≤ 60%
Human carcinoma cells
  relative cell growth: largely suppressed
[2]
  inhibition of cholesterol esterification by liver cholesterol esterase: inhibits
[3]; bilirubin treated skin areas
  skin inflammation after UV exposure: no sign of inflammation
[3]; topical pretreatment with bilirubin in DMSO (FIG. 8)
  minimal erythema dose (MED): increased
[4]; [5]
  total cholesterol concentration: varied inversely
  total serum bilirubin level: effectively increased
[4]; [6]
  LDL-cholesterol level: lower
  triglycerol level: lower
[4]; bilirubin treatment
  fecal fat content: substantially increased
